# Paper PMC8699473, “An Easily Expandable Multi-Drug LC-MS Assay for the Simultaneous Quantification of 57 Oral Antitumor Drugs in Human Plasma” (Cancers, 2021)
# Assay: Short-term stability in spiked pooled human plasma (bench-top, 4 °C, 56 °C)
Compound,"concentrations in short-term stability investigations (24 h, room temperature, with or without light)","Short-time stability (1h, 56°C) Accuracy [%] (validation standard 2xLLOV)","Short-time stability (24h, 4°C, without daylight) Accuracy [%] (validation standard 2xLLOV)","Short-time stability (24h, RT, with daylight) Accuracy [%] (validation standard 2xLLOV)","Short-time stability (24h, RT, without daylight) Accuracy [%] (validation standard 2xLLOV)","Short-time stability (1h, 56°C) Accuracy [%] (validation standard LLOV)","Short-time stability (24h, 4°C, without daylight) Accuracy [%] (validation standard LLOV)","Short-time stability (24h, RT, with daylight) Accuracy [%] (validation standard LLOV)","Short-time stability (24h, RT, without daylight) Accuracy [%] (validation standard LLOV)","Short-time stability (1h, 56°C) Accuracy [%] (validation standard MOV)","Short-time stability (24h, 4°C, without daylight) Accuracy [%] (validation standard MOV)","Short-time stability (24h, RT, with daylight) Accuracy [%] (validation standard MOV)","Short-time stability (24h, RT, without daylight) Accuracy [%] (validation standard MOV)","Short-time stability (1h, 56°C) Accuracy [%] (validation standard ULOV)","Short-time stability (24h, 4°C, without daylight) Accuracy [%] (validation standard ULOV)","Short-time stability (24h, RT, with daylight) Accuracy [%] (validation standard ULOV)","Short-time stability (24h, RT, without daylight) Accuracy [%] (validation standard ULOV)"
CN(C)C/C=C/C(=O)Nc1cc2c(Nc3ccc(F)c(Cl)c3)ncnc2cc1O[C@H]1CCOC1 [Afatinib],64.3–92.5%,30.4,85.5,80.8,92.5,7.2,85.9,64.3,69.9,36.2,97.9,89.4,91.4,33.2,92.8,77.8,82.7
O=C(c1ccc(F)c(F)c1Nc1ccc(I)cc1F)N1CC(O)([C@@H]2CCCCN2)C1 [Cobimetinib],–,51.4,100.9,98.3,98.8,42.7,99.9,98.6,99.8,47.6,102.5,102.4,103.8,41.3,97.5,103.8,100.3
COc1cc2nccc(Oc3ccc(NC(=O)Nc4cc(C)on4)c(Cl)c3)c2cc1OC [Tivozanib],–,49.4,103.2,104.0,103.9,38.6,102.5,99.0,100.8,49.6,100.8,103.5,105.8,42.5,98.0,104.7,103.8
CCN(CC)CCNC(=O)c1c(C)[nH]c(/C=C2\C(=O)Nc3ccc(F)cc32)c1C [Sunitinib],–,54.5,105.9,79.8,83.9,65.8,111.2,93.0,98.2,44.2,101.2,83.0,86.7,40.6,106.4,93.1,93.8
COC(=O)N[C@@H](C)CNc1nccc(-c2cn(C(C)C)nc2-c2cc(Cl)cc(NS(C)(=O)=O)c2F)n1 [Encorafenib],–,54.9,106.5,109.5,112.9,–,110.1,108.1,104.0,54.0,102.1,105.9,109.8,44.5,98.5,108.8,108.3
